Measurements reported in PMC8134483 (Scientific Reports, 2021).
Where two headings read alike, the source gives them in different places.

Columns and labels:
hCB1R [1] = target: T1, hCB1R (Homo sapiens, UniProt P21554); assay: biochemical; type: binding
T1 construct: expressed in transfected cells; host or cells: CHO-K1

hCB1R [2] = target: T1, hCB1R; assay: cell-based; type: cell-based
hCB1R [3] = target: T1, hCB1R; assay: cell-based; type: cell-based; remark: listed apart in the source
hCB2R [4] = target: T2, hCB2R (Homo sapiens, UniProt P34972); assay: [^3H]CP55,940 competition (radioligand displacement) binding to CB2R
T2 construct: host or cells: CHO-K1 (PathHunter)

hCB2R [5] = target: T2, hCB2R; assay: HitHunter inhibition of FSK-stimulated cAMP, CB2R; type: cell-based
hCB2R [6] = target: T2, hCB2R; assay: PathHunter βarrestin2 recruitment, CB2R; type: cell-based; details: for βarrestin2 recruitment to CB2R, activity in words: relative to CP55,940
hCB1R [7] = target: T1, hCB1R; assay: CB1R bias analysis (operational model, cAMP inhibition vs βarrestin2); type: cell-based; details: cAMP inhibition vs βarrestin2
Procedure: (§1) Estimates of Ki, EC50, Emin, and Emax were determined using non-linear regression with variable slope (four parameters) (GraphPad, Prism, v. 8.0). […] One-way analysis of variance (ANOVA), followed by Tukey’s post-hoc test, was used for statistical analyses (p < 0.05 determined to be significant); and Bartlett’s test was used to confirm homogeneity of variance (GraphPad).

hCB2R [8] = target: T2, hCB2R; assay: CB2R bias analysis (operational model, cAMP inhibition vs βarrestin2); type: cell-based; details: CP55,940 as reference agonist; >0 cAMP bias, <0 βarrestin2 bias
Procedure: as §1

male C57Bl/6 mice [9] = assay: Catalepsy, ring holding assay; type: in vivo; details: 0.1–10 mg/kg i.p.; 5 min; % MPE 60 s
Procedure: (§2) Adult male C57BL/6 mice aged 6–10 weeks (mean weight 24 ± 0.5 g) were purchased from Charles River Labs (Senneville, QC). Animals were group housed (three per cage) with ad libitum access to food, water, and environmental enrichment and maintained on a 12 h light/dark cycle. Mice were randomly assigned to receive i.p. injections of vehicle (1:1:18 ethanol:emulphor:saline) or 0.1–10 mg/kg SCRA (n ≥ 4 per group). All protocols have been described previously and were in accordance with the guidelines detailed by the Canadian Council on Animal Care and approved by the Animal Research Ethics Board and the Scientific Merit Review Committee for Animal Behaviour at the University of Saskatchewan. […]
(§3) Modified tetrad testing (catalepsy, body temperature, tail flick assay) was conducted according to previously described methods, which are summarized briefly here. […] Catalepsy was assessed in the ring holding assay 5 min following injection with mouse forepaws clasped to a 5 mm ring positioned 5 cm above the surface of the testing space. The length of time the ring was held was recorded (s) to a maximum time of 60 s (i.e. MPE = 60 s). Internal body temperature was measured 15 min after injection. Anti-nociception was determined by assessing tail flick latency 20 min after injection. […]

male C57Bl/6 mice [10] = assay: Internal body temperature; type: in vivo; details: 0.1–10 mg/kg i.p.; 15 min
Procedure: as §2, §3

male C57Bl/6 mice [11] = assay: Anti-nociception, tail flick assay; type: in vivo; details: 0.1–10 mg/kg i.p.; 20 min; 52 °C; % MPE 20 s
Procedure: as §2, §3

male C57Bl/6 mice [12] = assay: Elevated plus maze (EPM); type: in vivo; details: 1.0 mg/kg i.p., 30 min after treatment, 5 min trial
Procedure: Adult male C57BL/6 mice aged 6–10 weeks (mean weight 24 ± 0.5 g) were purchased from Charles River Labs (Senneville, QC). Animals were group housed (three per cage) with ad libitum access to food, water, and environmental enrichment and maintained on a 12 h light/dark cycle. Mice were randomly assigned to receive i.p. injections of vehicle (1:1:18 ethanol:emulphor:saline) or 0.1–10 mg/kg SCRA (n ≥ 4 per group). All protocols have been described previously and were in accordance with the guidelines detailed by the Canadian Council on Animal Care and approved by the Animal Research Ethics Board and the Scientific Merit Review Committee for Animal Behaviour at the University of Saskatchewan. The following steps were taken to ensure our study was in keeping with the ARRIVE guidelines: (1) power analyses were conducted to determine the minimum number of animals required for the study; (2) animals were purchased—rather than bred—to limit animal waste; and (3) all assessments of animal behaviour were made by individuals blinded to the treatment group,[57].
EPM was conducted according to methods adapted from Marks et al.. The EPM was built from a plywood base painted blue with blue corrugated plastic floor and walls. The floor of the maze was composed of perpendicular interlocking arms (110 cm long × 10 cm wide) with two arms having 45 cm walls (closed arms) and two arms having no walls and a 0.5 cm edge (open arms), all elevated 45 cm from the ground. Trials began with the mouse in the central zone facing an open arm. Trials lasted 5 min and began 30 min after SCRA treatment. An arm entry was considered to be all four limbs leaving the central zone. Arm entries and the percent time spent in open versus closed arms were recorded by an observer blinded to the treatment group. Less time in the open arms and more time in the closed arms was used as a model of anxiogenic behaviour.

[13] = bottom of the concentration–response curve, mean ± SEM

T1 sequence (P21554 whole entry): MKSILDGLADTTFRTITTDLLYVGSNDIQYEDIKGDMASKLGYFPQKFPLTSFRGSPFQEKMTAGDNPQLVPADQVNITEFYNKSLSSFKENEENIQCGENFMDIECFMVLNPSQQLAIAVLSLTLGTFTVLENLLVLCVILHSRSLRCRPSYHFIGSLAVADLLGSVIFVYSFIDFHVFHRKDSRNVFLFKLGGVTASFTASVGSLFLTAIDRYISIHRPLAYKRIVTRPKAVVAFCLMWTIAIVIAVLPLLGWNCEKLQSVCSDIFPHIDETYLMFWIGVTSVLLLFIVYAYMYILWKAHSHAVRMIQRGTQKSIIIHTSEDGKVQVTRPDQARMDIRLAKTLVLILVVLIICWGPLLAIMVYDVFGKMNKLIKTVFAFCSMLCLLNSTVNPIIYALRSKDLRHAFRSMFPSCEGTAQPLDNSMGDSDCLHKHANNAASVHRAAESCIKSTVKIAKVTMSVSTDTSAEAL
T2 sequence (P34972 whole entry): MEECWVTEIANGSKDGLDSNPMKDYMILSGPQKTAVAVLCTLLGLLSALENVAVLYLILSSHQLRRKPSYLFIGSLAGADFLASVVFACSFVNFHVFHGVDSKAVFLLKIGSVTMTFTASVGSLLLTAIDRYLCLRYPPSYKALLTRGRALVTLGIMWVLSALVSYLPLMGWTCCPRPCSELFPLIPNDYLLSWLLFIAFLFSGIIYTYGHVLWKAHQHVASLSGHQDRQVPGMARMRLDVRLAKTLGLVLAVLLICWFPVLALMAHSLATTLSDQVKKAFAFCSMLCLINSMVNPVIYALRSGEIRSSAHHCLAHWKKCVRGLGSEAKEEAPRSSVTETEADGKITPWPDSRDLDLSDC

CC(C)CCn1cc(C(=O)c2ccc3ccccc3c2)c2ccccc21 [JWH 018 2'-naphthyl-N-(3-methylbutyl) isomer]
Ki (hCB1R [1]): 0.93 nM
CB1R versus CB2R selectivity, receptor affinity (hCB1R [1]; CB1R vs CB2R [^3H]CP55,940 binding): greater affinity at CB1R relative to CB2R
CB1R [^3H]CP55,940 Emin (hCB1R [1]; [13]): 9.6 ± 2.7%
CB1R versus CB2R selectivity, cAMP inhibition potency (hCB1R [2]; CB1R vs CB2R): more potent at CB2R relative to CB1R
EC50 (hCB1R [2]; CHO hCB1R, 10 µM FSK, 90 min, value with 95% CI, read-out: CB1R cAMP Inhibition EC50): 98 nM
Emax (hCB1R [2]; read-out: CB1R cAMP Inhibition Emax): 80 ± 9.1%
EC50 (hCB1R [3]; CHO hCB1R, 90 min, value with 95% CI, read-out: CB1R βarrestin2 recruitment EC50): > 10000 nM
Emax (hCB1R [3]; read-out: CB1R βarrestin2 recruitment Emax): 4.9 ± 0.51%
βarrestin2 recruitment to CB1R, activity in words (hCB1R [3]; relative to CP55940): Inactive at βarrestin2
Ki (hCB2R [4]): 7.5 nM
CB2R [^3H]CP55,940 Emin (hCB2R [4]; [13]): 54 ± 3.5 %
EC50 (hCB2R [5]): 0.52 nM
Emax (hCB2R [5]): 110 ± 9.2%
EC50 (hCB2R [6]): > 10000 nM
Emax (hCB2R [6]): 6.1 ± 1.3%
βarrestin2 recruitment to CB2R, activity in words (hCB2R [6]): Inactive at βarrestin2
βarrestin2 recruitment to CB2R, activity in words (hCB2R [6]; listed as JWH 018 2′-napthyl-N-(3-methylbutyl) isomer): inactive in βarrestin2
Observed CB1R bias in cell culture (hCB1R [7]): G protein
CB2R bias between cAMP inhibition and βarrestin2 recruitment, ∆∆LogR (cAMP—βarr2), in words (hCB2R [8]): obligate cAMP-biased ligands
Catalepsy response (male C57Bl/6 mice [9]): partial agonist
Body temperature (hypothermia) response (male C57Bl/6 mice [10]): did not change body temperature
Anti-nociceptive response, tail flick (male C57Bl/6 mice [11]): full agonist
EPM open arm entries (male C57Bl/6 mice [12]): increased open arm entry
EPM time in the open arms (male C57Bl/6 mice [12]): greater amount of time spent in the open arms
EPM total arm entries (male C57Bl/6 mice [12]; vs vehicle): did not change total arm entries
